Experimental data reported in paper PMC11844072, “Novel 5,6-dichlorobenzimidazole derivatives as dual BRAFWT and BRAFV600E inhibitors: design, synthesis, anti-cancer activity and molecular dynamics simulations” (BMC Chemistry, 2025).

Columns and labels:
[1] = tested on: NCI 60 cancer cell line panel; experiment: NCI 60 single concentration growth inhibition, panel mean; type: cell-based; conditions: Homo sapiens, mean over NCI 60 panel, read-out: Mean GI%
Procedure: The synthesized dichlorobenzimidazoles 10a–p were assayed for their influence on divers cancer cell lines according to the method presented in the Additional file A.
5. Screening of cytotoxic activity against a panel of sixty human tumor cell lines
The selected compounds by NCI were evaluated for their anticancer activity in a two-stage process. First, these compounds were screened against the full NCI 60 cell lines panel at a single high dose of 10 µM. Then, the output from the single dose screen is reported as a mean graph. […]
at five different minimal concentrations.
Assay protocol. The human tumor cell lines of the cancer screening panel are grown in RPMI 1640 medium containing 5% fetal bovine serum and 2 mM L-glutamine. For a typical screening experiment, cells are inoculated into 96 well microtiter plates in 100 µL at plating densities ranging from 5000 to 40,000 cells/well depending on the doubling time of individual cell lines. After cell inoculation, the microtiter plates are incubated at 37 °C, 5% CO 2, 95% air and 100% relative humidity for 24 h prior to addition of the experimental drugs.
After 24 h, two plates of each cell line are fixed in situ with TCA, to represent a measurement of the cell population for each cell line at the time of drug addition (Tz). The experimental drugs are solubilized in dimethyl sulfoxide at 400-fold the desired final maximum test concentration and stored frozen prior to use. At the time of drug addition, an aliquot of frozen concentrate is thawed and diluted to twice the desired final maximum test concentration with complete medium containing 50 µg/mL gentamicin. Additional four, 10-fold or ½ log serial dilutions are made to provide a total of five drug concentrations plus control.
Aliquots of […] of these different drug dilutions are added to the appropriate microtiter wells already containing […] of medium, resulting in the required final drug concentrations.
Following drug addition, the plates are incubated for an additional 48 h at 37 °C, 5% CO 2, 95% air, and 100% relative humidity. For adherent cells, the assay is terminated by the addition of cold TCA.
Cells are fixed in situ by the gentle addition of 50 µL of cold 50% (w/v) TCA (final concentration, 10% TCA) and incubated for 60 min at 4 °C. The supernatant is discarded, and the plates are washed five times with tap water and air dried. Sulforhodamine B (SRB) solution ([…]) at 0.4% (w/v) in 1% acetic acid is added to each well, and plates are incubated for 10 min at room temperature. After staining, unbound dye is removed by washing five times with 1% acetic acid and the plates are air dried. Bound stain is subsequently solubilized with 10 mM trizma base, and the absorbance is read on an automated plate reader at a wavelength of 515 nm. For suspension cells, the methodology is […]
the same except that the assay is terminated by fixing settled cells at the bottom of the wells by gently adding 50 µl of 80% TCA (final concentration, 16% TCA). Using the seven absorbance measurements [time zero, (Tz), control growth, (C), and test growth in the presence of drug at the five concentration levels (Ti)], the percentage growth is calculated at each of the drug concentrations […]
Percentage growth inhibition is calculated as: [(Ti Tz)/(C–Tz)] x 100 for concentrations for which Ti>/=Tz and [(Ti-Tz)/Tz] x 100 for concentrations for which Ti < Tz.
Three dose response parameters are calculated for each experimental agent. Growth […]
concentration resulting in a 50% reduction in the net protein increase (as measured by SRB staining) in control cells during the drug incubation. The drug concentration resulting in total growth inhibition (TGI) is calculated from Ti = Tz. […]
reduction in the measured protein at the end of the drug treatment as compared to that at the beginning) indicating a net loss of cells following treatment is calculated from [(Ti–Tz)/Tz] x 100 =
_50. Values are calculated for each of these three parameters if the level of activity is reached; […]

HCT-15 = experiment: NCI 60 single concentration growth inhibition; type: cell-based, human; conditions: Homo sapiens, HCT-15, Colon cancer, read-out: GI%
How it was run: (§1)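 Growth measured by sulforhodamine B protein staining (515 nm) after 48 h drug exposure at 37 °C, following 24 h plating in RPMI 1640 with 5% FBS and 2 mM L-glutamine. Compounds first tested at one 10 µM dose, then five-dose series (10-fold or ½ log steps); percent growth relative to time-zero and untreated wells.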

HCC-2998 = experiment: NCI 60 single concentration growth inhibition; type: cell-based, human; conditions: Homo sapiens, HCC-2998, Colon cancer, read-out: GI%
How it was run: as §1

LOX IMVIL = experiment: NCI 60 single concentration growth inhibition; type: cell-based, human; conditions: Homo sapiens, Melanoma, read-out: GI%
How it was run: as §1

OVCAR-4 = experiment: NCI 60 single concentration growth inhibition; type: cell-based, human; conditions: Homo sapiens, OVCAR-4, Ovarian cancer, read-out: GI%
How it was run: as §1

SW-620 = experiment: NCI 60 single concentration growth inhibition; type: cell-based, human; conditions: Homo sapiens, SW-620, Colon cancer, read-out: GI%
How it was run: as §1

NCI-H460 = experiment: NCI 60 single concentration growth inhibition; type: cell-based, human; conditions: Homo sapiens, NCI-H460, Non-small cell lung cancer, read-out: GI%
How it was run: as §1

HOP-92 = experiment: NCI 60 single concentration growth inhibition; type: cell-based, human; conditions: Homo sapiens, HOP-92, Non-small cell lung cancer, read-out: GI%
How it was run: as §1

U251 = experiment: NCI 60 single concentration growth inhibition; type: cell-based, human; conditions: Homo sapiens, U-251, U251, CNS cancer, read-out: GI%
How it was run: as §1

DU-145 = experiment: NCI 60 single concentration growth inhibition; type: cell-based, human; conditions: Homo sapiens, DU-145, Prostate cancer, read-out: GI%
How it was run: as §1

NCI-H522 = experiment: NCI 60 single concentration growth inhibition; type: cell-based, human; conditions: Homo sapiens, NCI-H522, Non-small cell lung cancer, read-out: GI%
How it was run: as §1

TK-10 = experiment: NCI 60 single concentration growth inhibition; type: cell-based, human; conditions: Homo sapiens, TK-10, Renal cancer, read-out: GI%
How it was run: as §1

K-562 = experiment: NCI 60 single concentration growth inhibition; type: cell-based, human; conditions: Homo sapiens, K562, K-562, Leukemia, read-out: GI%
How it was run: as §1

COLO 205 = experiment: NCI 60 single concentration growth inhibition; type: cell-based, human; conditions: Homo sapiens, COLO 205, Colon cancer, read-out: GI%
How it was run: as §1

SNB-19 = experiment: NCI 60 single concentration growth inhibition; type: cell-based, human; conditions: Homo sapiens, SNB-19, CNS cancer, read-out: GI%
How it was run: as §1

SMILES | inhibition at 10 µM [1] | inhibition at 10 µM (HCT-15) | inhibition at 10 µM (HCC-2998) | inhibition at 10 µM (LOX IMVIL) | inhibition at 10 µM (OVCAR-4) | inhibition at 10 µM (SW-620) | inhibition at 10 µM (NCI-H460) | inhibition at 10 µM (HOP-92) | inhibition at 10 µM (U251) | inhibition at 10 µM (DU-145) | inhibition at 10 µM (NCI-H522) | inhibition at 10 µM (TK-10) | inhibition at 10 µM (K-562) | inhibition at 10 µM (COLO 205) | inhibition at 10 µM (SNB-19)
COC(=O)COc1cc(C=NNC(=O)Cn2c(-c3ccc(OC)cc3)nc3cc(Cl)c(Cl)cc32)ccc1OC [Compound 10o, Methyl-2-(5-((2-(2-(5,6-dichloro-2-(4-methoxyphenyl)-1H-benzo[d]imidazol-1-yl)acetyl)hydrazono)methyl)-2-methoxyphenoxy)acetate] | 34.6% | 23.6% | 83.8% | 36.4% | 18% | < 5% | < 5% | 29.1% | 6.53% | 155% | 32.7% | < 5% | 23.6% | < 5% | < 5%
COC(=O)COc1ccc(C=NNC(=O)Cn2c(-c3ccc(OC)cc3)nc3cc(Cl)c(Cl)cc32)cc1OC [Compound 10p, Methyl-2-(4-((2-(2-(5,6-dichloro-2-(4-methoxyphenyl)-1H-benzo[d]imidazol-1-yl)acetyl)hydrazono)methyl)-2-methoxyphenoxy)acetate] | 37.6% | 21.5% | 86.1% | 25.2% | < 5% | < 5% | < 5% | < 5% | < 5% | 143% | 6.3% | 58% | 12.3% | 34.9% | < 5%
